21 compounds from patent US20250215012A1, “IKZF2 DEGRADERS AND USES THEREOF” (REGENTS OF THE UNIVERSITY OF MICHIGAN, priority 2022, published 2025) can be followed below.

Where only a bound is given, the exact number is not on record here.

This experiment addresses IKZF2 (Homo sapiens (Human), UniProt Q96SW2+Q9UKS7). Briefly: IKZF2 HiBiT Assay (Jurkat-IKZF2-HiBiT cell line). The experiment is classed as cell-based. Particulars: Jurkat-IKZF2-HiBiT cells, 24 hours; for DC50: read-out: HiBit assay degradation analysis DC50; for Dmax: read-out: HiBit assay degradation analysis Dmax. The method, then:
Degradation of IKZF2 protein is determined by IKZF2 HiBiT assay using the Jurkat-IKZF2-HiBiT (Promega) cell line. Briefly, cells are seeded in culture medium. Compounds are serially diluted in culture medium, and certain volume of the diluted compounds is added to the appropriate well of the plate. After the addition of compounds, the cells are incubated. At the end of treatment, Nano-Glo HiBiT Lytic Detection Reagent (Promega) is added to each well, and then the plates are incubated at room temperature for a certain time period. The luminescent signal is measured using a CALRIOstar plate reader (BMG Labtech). The readings are normalized to the DMSO-treated cells and the IC50 is calculated by nonlinear regression (four parameters sigmoid fitted with variable slope, least squares fit, and no constraint) analysis using the GraphPad Prism 8 software.
Degradation of IKZF2 protein was determined by IKZF2 HiBiT assay using the Jurkat-IKZF2-HiBiT (Promega) cell line. […] Compounds were serially diluted in culture medium, and 20 μl of the diluted compounds were added to the appropriate wells of the plate. After the addition of compounds, the cells were incubated at 37° C. in an atmosphere of 5% CO2 for 24 hours. At the end of treatment, 40 ul of Nano-Glo HiBiT Lytic Detection Reagent (Promega) was added to each well, and then the plates were incubated at room temperature for 10-20 minutes. The luminescent signal was measured using a CALRIOstar plate reader (BMG Labtech). The readings were normalized to the DMSO-treated cells and the IC50 was calculated by nonlinear regression (four parameters sigmoid fitted with variable slope, least squares fit, and no constraint) analysis using the GraphPad Prism 8 software.

Chain of IKZF2 (Q9UKS7 whole entry): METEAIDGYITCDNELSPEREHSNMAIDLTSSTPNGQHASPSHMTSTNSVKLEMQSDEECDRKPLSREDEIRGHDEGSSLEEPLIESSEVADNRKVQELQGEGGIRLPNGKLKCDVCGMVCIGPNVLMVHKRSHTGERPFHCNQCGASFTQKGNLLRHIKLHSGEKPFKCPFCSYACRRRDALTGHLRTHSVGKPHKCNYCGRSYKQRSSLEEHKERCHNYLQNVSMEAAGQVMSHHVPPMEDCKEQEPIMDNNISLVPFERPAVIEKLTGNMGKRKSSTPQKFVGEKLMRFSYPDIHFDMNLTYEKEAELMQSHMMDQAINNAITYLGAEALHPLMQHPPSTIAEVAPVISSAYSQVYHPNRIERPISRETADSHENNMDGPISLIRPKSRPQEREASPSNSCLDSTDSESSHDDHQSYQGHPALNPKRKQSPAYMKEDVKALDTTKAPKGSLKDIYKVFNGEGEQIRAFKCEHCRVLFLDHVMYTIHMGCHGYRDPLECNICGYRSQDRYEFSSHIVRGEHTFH
Chain of IKZF2 (Q96SW2 whole entry): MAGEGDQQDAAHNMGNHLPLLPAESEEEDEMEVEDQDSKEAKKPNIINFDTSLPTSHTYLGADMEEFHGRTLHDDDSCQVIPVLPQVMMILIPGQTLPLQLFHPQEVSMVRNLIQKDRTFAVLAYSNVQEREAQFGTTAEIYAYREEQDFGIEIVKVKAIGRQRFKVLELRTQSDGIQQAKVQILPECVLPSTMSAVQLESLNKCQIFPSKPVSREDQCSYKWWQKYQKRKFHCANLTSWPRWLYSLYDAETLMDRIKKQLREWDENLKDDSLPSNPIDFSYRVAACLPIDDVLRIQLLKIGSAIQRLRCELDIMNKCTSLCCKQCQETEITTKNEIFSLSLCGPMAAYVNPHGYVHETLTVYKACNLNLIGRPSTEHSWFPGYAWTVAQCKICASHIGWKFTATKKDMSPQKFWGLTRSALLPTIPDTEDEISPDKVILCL
Chain of IKZF2 (Q16531 whole entry partner): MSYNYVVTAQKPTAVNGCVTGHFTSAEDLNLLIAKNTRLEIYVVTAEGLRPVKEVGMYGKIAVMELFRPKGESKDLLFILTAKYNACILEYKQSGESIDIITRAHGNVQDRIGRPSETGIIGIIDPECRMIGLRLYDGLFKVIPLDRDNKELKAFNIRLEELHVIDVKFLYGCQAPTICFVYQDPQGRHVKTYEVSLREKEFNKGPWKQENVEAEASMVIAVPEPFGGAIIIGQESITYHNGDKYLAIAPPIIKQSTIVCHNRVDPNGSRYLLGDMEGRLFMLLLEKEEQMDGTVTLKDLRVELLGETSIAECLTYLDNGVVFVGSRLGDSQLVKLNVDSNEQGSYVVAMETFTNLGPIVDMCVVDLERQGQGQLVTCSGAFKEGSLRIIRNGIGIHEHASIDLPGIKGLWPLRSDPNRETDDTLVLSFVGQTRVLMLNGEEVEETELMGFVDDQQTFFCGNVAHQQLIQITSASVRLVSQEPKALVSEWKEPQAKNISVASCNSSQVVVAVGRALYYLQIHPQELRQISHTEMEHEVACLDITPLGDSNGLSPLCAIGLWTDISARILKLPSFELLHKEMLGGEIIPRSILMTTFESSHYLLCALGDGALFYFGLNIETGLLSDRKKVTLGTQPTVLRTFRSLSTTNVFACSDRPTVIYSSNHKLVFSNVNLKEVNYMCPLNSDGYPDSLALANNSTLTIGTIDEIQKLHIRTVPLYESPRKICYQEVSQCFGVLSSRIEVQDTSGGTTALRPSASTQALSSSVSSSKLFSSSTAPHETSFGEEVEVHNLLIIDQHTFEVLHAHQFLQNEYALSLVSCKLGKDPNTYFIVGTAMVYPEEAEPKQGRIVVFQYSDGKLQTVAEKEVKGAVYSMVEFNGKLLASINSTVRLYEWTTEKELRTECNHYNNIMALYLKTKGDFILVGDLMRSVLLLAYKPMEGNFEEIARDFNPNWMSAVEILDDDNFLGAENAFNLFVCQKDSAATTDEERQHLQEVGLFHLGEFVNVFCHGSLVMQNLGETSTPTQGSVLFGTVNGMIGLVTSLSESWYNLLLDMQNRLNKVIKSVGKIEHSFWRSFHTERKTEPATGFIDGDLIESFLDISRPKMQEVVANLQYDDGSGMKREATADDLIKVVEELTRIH

On to `O=C1CCC(N2Cc3c(ccc4c3OCC43CCN(Cc4cccc(Br)c4)CC3)C2=O)C(=O)N1` (centres unmarked) [Compound A91, 3-(1′-(3-bromobenzyl)-6-oxo-6,8-dihydro-2H,7H-spiro[furo[2,3-e]isoindole-3,4′-piperidin]-7-yl)piperidine-2,6-dione], for which the DC50 was less than 50 nM and the Dmax fell in the range of 60 to 80%. For `Cn1ncc2cc(CN3CCC4(CC3)COc3c4ccc4c3CN(C3CCC(=O)NC3=O)C4=O)ccc21` (centres unmarked) [Compound A217, 3-(1′-((1-methyl-1H-indazol-5-yl)methyl)-6-oxo-6,8-dihydro-2H,7H-spiro[furo[2,3-e]isoindole-3,4′-piperidin]-7-yl)piperidine-2,6-dione] the same measures were more than 500 nM and less than 40%.

Regarding `O=C1CC[C@H](N2Cc3c(ccc4c3OCC43CCN(Cc4cccc(-c5cnn(C(F)F)c5)c4)CC3)C2=O)C(=O)N1` [Compound A281, (S)-3-(1′-(3-(1-(difluoromethyl)-1H-pyrazol-4-yl)benzyl)-6-oxo-6,8-dihydro-2H,7H-spiro[furo[2,3-e]isoindole-3,4′-piperidin]-7-yl)piperidine-2,6-dione], the DC50 is less than 50 nM and the Dmax is more than 80%. For `O=C1CCC(N2Cc3c(ccc4c3OCC43CCN(Cc4cccc5c(F)cccc45)CC3)C2=O)C(=O)N1` (centres unmarked) [Compound A35, 3-(1′-((5-fluoronaphthalen-1-yl)methyl)-6-oxo-6,8-dihydro-2H,7H-spiro[furo[2,3-e]isoindole-3,4′-piperidin]-7-yl)piperidine-2,6-dione] the same measures were less than 50 nM and more than 80%. For `O=C1CCC(N2Cc3c(ccc4c3OCC43CCN(Cc4ccc5nccnc5c4)CC3)C2=O)C(=O)N1` (centres unmarked) [Compound A48, 3-(6-oxo-1′-(quinoxalin-6-ylmethyl)-6,8-dihydro-2H,7H-spiro[furo[2,3-e]isoindole-3,4′-piperidin]-7-yl)piperidine-2,6-dione] the same measures were more than 500 nM and less than 40%. Regarding `O=C1CCC(N2Cc3c(ccc4c3OCC43CCN(Cc4cnn(Cc5ccc(F)cc5)c4)CC3)C2=O)C(=O)N1` (centres unmarked) [Compound A237, 3-(1′-((1-(4-fluorobenzyl)-1H-pyrazol-4-yl)methyl)-6-oxo-6,8-dihydro-2H,7H-spiro[furo[2,3-e]isoindole-3,4′-piperidin]-7-yl)piperidine-2,6-dione], the DC50 was in the range of 50 to 200 nM and the Dmax lay within 60 to 80%. For the compound `O=C1CCC(N2Cc3c(ccc4c3OCC43CCN(Cc4ccc5ncsc5c4)CC3)C2=O)C(=O)N1` (centres unmarked) [Compound A62, 3-(1′-(benzo[d]thiazol-6-ylmethyl)-6-oxo-6,8-dihydro-2H,7H-spiro[furo[2,3-e]isoindole-3,4′-piperidin]-7-yl)piperidine-2,6-dione], the DC50 was 200 to 500 nM and the Dmax lay within 40 to 60%. Regarding `O=C1CCC(N2Cc3c(ccc4c3OCC43CCN(Cc4ccc(OCc5ccccc5)nc4)CC3)C2=O)C(=O)N1` (centres unmarked) [Compound A339, 3-(1′-((6-(benzyloxy)pyridin-3-yl)methyl)-6-oxo-6,8-dihydro-2H,7H-spiro[furo[2,3-e]isoindole-3,4′-piperidin]-7-yl)piperidine-2,6-dione], the DC50 is more than 500 nM and the Dmax is 40 to 60%.

For `O=C1CCC(N2Cc3c(ccc4c3OCC43CCN(Cc4ccc5nn(CCO)cc5c4)CC3)C2=O)C(=O)N1` (centres unmarked) [Compound A345, 3-(1′-((2-(2-hydroxyethyl)-2H-indazol-5-yl)methyl)-6-oxo-6,8-dihydro-2H,7H-spiro [furo[2,3-e]isoindole-3,4′-piperidin]-7-yl)piperidine-2,6-dione], the DC50 is more than 500 nM and the Dmax is less than 40%.

`O=C1CC[C@H](N2Cc3c(ccc4c3OCC43CCN(Cc4cccc(-c5cnn(C[C@@H]6CCO6)c5)c4)CC3)C2=O)C(=O)N1` [Compound A274, (S)-3-(1′-(3-(1-(((S)-oxetan-2-yl)methyl)-1H-pyrazol-4-yl)benzyl)-6-oxo-6,8-dihydro-2H,7H-spiro[furo[2,3-e]isoindole-3,4′-piperidin]-7-yl)piperidine-2,6-dione]: the DC50 lay in the range of 50 to 200 nM and the Dmax lay in the range of 60 to 80%. Regarding `O=C1CC[C@H](N2Cc3c(ccc4c3OCC43CCN(Cc4cnn(S(=O)(=O)c5ccc(F)cc5)c4)CC3)C2=O)C(=O)N1` [Compound A354, (S)-3-(1′-((1-((4-fluorophenyl)sulfonyl)-1H-pyrazol-4-yl)methyl)-6-oxo-6,8-dihydro-2H,7H-spiro[furo[2,3-e]isoindole-3,4′-piperidin]-7-yl)piperidine-2,6-dione], the Dmax was in the range of 40 to 60%. Regarding `CCn1cc2ccc(CN3CCC4(CC3)COc3c4ccc4c3CN([C@H]3CCC(=O)NC3=O)C4=O)cc2n1` [Compound A299, (S)-3-(1′-((2-ethyl-2H-indazol-6-yl)methyl)-6-oxo-6,8-dihydro-2H,7H-spiro[furo[2,3-e]isoindole-3,4′-piperidin]-7-yl)piperidine-2,6-dione], the DC50 is less than 50 nM and the Dmax was in the range of 60 to 80%. Consider `Cn1cc(CN2CCC3(CC2)COc2c3ccc3c2CN(C2CCC(=O)NC2=O)C3=O)cn1` (centres unmarked) [Compound A228, 3-(1′-((1-methyl-1H-pyrazol-4-yl)methyl)-6-oxo-6,8-dihydro-2H,7H-spiro[furo[2,3-e]isoindole-3,4′-piperidin]-7-yl)piperidine-2,6-dione], for which the half-maximal degradation concentration (DC50) is more than 500 nM and the Dmax is less than 40%. On the same counts, the results for `N#Cc1ccc(-n2cc(CN3CCC4(CC3)COc3c4ccc4c3CN([C@H]3CCC(=O)NC3=O)C4=O)cn2)cc1` [Compound A359, (S)-4-(4-((7-(2,6-dioxopiperidin-3-yl)-6-oxo-7,8-dihydro-2H,6H-spiro[furo[2,3-e]isoindole-3,4′-piperidin]-1′-yl)methyl)-1H-pyrazol-1-yl)benzonitrile] are less than 50 nM and 60 to 80%. On the same counts, the results for `O=C1CCC(N2Cc3c(ccc4c3OCC43CCN(Cc4cncc(Cl)c4)CC3)C2=O)C(=O)N1` (centres unmarked) [Compound A248, 3-(1′-((5-chloropyridin-3-yl)methyl)-6-oxo-6,8-dihydro-2H,7H-spiro[furo[2,3-e]isoindole-3,4′-piperidin]-7-yl)piperidine-2,6-dione] are more than 500 nM and less than 40%. On the same counts, the results for `O=C1CCC(N2Cc3c(ccc4c3OCC43CCN(Cc4ccc(C(F)(F)F)cc4)CC3)C2=O)C(=O)N1` (centres unmarked) [Compound A194, 3-(6-oxo-1′-(4-(trifluoromethyl)benzyl)-6,8-dihydro-2H,7H-spiro[furo[2,3-e]isoindole-3,4′-piperidin]-7-yl)piperidine-2,6-dione] are more than 500 nM and less than 40%. With `O=C1CCC(N2Cc3c(ccc4c3OCC43CCN(CC4CCCC(c5ccccc5)C4)CC3)C2=O)C(=O)N1` (centres unmarked) [Compound A181, 3-(6-oxo-1′-((3-phenylcyclohexyl)methyl)-6,8-dihydro-2H,7H-spiro[furo[2,3-e]isoindole-3,4′-piperidin]-7-yl)piperidine-2,6-dione], the DC50 lay in the range of 200 to 500 nM and the Dmax fell in the range of 40 to 60%. On the same counts, the results for `O=C1CC[C@H](N2Cc3c(ccc4c3OCC43CCN(Cc4cc(F)cc(-c5cnn(C6COC6)c5)c4)CC3)C2=O)C(=O)N1` [Compound A276, (S)-3-(1′-(3-fluoro-5-(1-(oxetan-3-yl)-1H-pyrazol-4-yl)benzyl)-6-oxo-6,8-dihydro-2H,7H-spiro[furo[2,3-e]isoindole-3,4′-piperidin]-7-yl)piperidine-2,6-dione] are less than 50 nM and 40 to 60%.

Take `O=C1CC[C@H](N2Cc3c(ccc4c3OCC43CCN(Cc4cccc(-c5cnn(CC6COC6)c5)c4)CC3)C2=O)C(=O)N1` [Compound A271, (S)-3-(1′-(3-(1-(oxetan-3-ylmethyl)-1H-pyrazol-4-yl)benzyl)-6-oxo-6,8-dihydro-2H,7H-spiro[furo[2,3-e]isoindole-3,4′-piperidin]-7-yl)piperidine-2,6-dione]: the DC50 is more than 500 nM and the Dmax is less than 40%. On the same counts, the results for `CN1CC2(CCN(Cc3cccc(-c4cnn(C)c4)c3)CC2)c2ccc3c(c21)CN(C1CCC(=O)NC1=O)C3=O` (centres unmarked) [Compound A308, 3-(1′-methyl-1-(3-(1-methyl-1H-pyrazol-4-yl)benzyl)-6′-oxo-1′,2′,6′,8′-tetrahydro-7′H-spiro[piperidine-4,3′-pyrrolo[3,4-g]indol]-7′-yl)piperidine-2,6-dione] are more than 500 nM and less than 40%. For `CC(C)n1cc(-c2cccc(CN3CCC4(CC3)COc3c4ccc4c3CN(C3CCC(=O)NC3=O)C4=O)c2)cn1` (centres unmarked) [Compound A146, 3-(1′-(3-(1-isopropyl-1H-pyrazol-4-yl)benzyl)-6-oxo-6,8-dihydro-2H,7H-spiro[furo[2,3-e]isoindole-3,4′-piperidin]-7-yl)piperidine-2,6-dione] the same measures were less than 50 nM and 60 to 80%.
